Data as given in patent publication US8518957B2, “Methanocarba adenosine derivatives, pharmaceutical compositions, and method of reducing intraocular pressure” (The United States of America, as represented by the …, priority 2009, dated 2013).

How the values were obtained:
[1] = biological target: T1, human A1 AR (Homo sapiens, UniProt P30542); assay: Radioligand binding at human A1 AR ([3H]NECA, membranes of CHO cells); details: for Ki: Example 7, agonist radioligand [3H]45, read-out: AR Affinity Ki, nM, A1
T1 construct: expressed in transfected cells
T1 sequence (P30542 1-326): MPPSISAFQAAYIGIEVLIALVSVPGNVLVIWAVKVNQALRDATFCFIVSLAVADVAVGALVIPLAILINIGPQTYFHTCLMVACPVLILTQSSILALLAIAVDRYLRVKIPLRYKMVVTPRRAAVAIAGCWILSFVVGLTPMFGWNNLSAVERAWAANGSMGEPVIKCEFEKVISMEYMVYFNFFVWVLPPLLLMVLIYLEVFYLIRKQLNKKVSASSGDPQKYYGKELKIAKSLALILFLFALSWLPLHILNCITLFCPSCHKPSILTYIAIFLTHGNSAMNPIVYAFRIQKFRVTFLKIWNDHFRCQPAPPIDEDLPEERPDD
Experimental: (§1) [^3H](2-[p-(2-Carboxyethyl)phenyl-ethylamino]-5′-N-ethylcarboxamido-adenosine) (37, [^3H]CGS21680, 40.5 Ci/mmol) and [^125I]N^6-(4-amino-3-iodobenzyl)adenosine-5′-N-methyluronamide (38, [^125I]I-AB-MECA, 2200 Ci/mmol) were purchased from Perkin-Elmer Life and Analytical Science (Boston, Mass.). Test compounds were prepared as 5 mM stock solutions in DMSO and stored frozen at −20° C.
(§2) CHO cells stably expressing the recombinant hA1 and hA3Rs, and HEK-293 cells stably expressing the hA2AAR were cultured in Dulbecco's modified Eagle medium (DMEM) and F12 (1:1) supplemented with 10% fetal bovine serum, 100 units/mL penicillin, 100 μg/mL streptomycin, and […] glutamine. In addition, 800 μg/mL geneticin was added to the A2A media, while 500 μg/mL hygromycin was added to the A1 and A3 media. After harvesting, cells were homogenized and suspended in PBS. Cells were then centrifuged at 240 g for 5 min, and the pellet was resuspended in 50 mM Tris-HCl buffer (pH 7.5) containing 10 mM MgCl2. The suspension was homogenized and was then ultra-centrifuged at 14,330 g for 30 min at 4° C. The resultant pellets were resuspended in Tris buffer, incubated with adenosine deaminase (3 units/mL) for 30 min at 37° C. The suspension was homogenized with an electric homogenizer for 10 sec, pipetted into 1 mL vials and then stored at −80° C. until the binding experiments were conducted. The protein concentration was measured using the BCA Protein Assay Kit from Pierce Biotechnology, Inc. (Rockford, Ill.).
(§3) Into each tube in the binding assay was added 50 μL of increasing concentrations of the test ligand in Tris-HCl buffer (50 mM, pH 7.5) containing 10 mM MgCl2, 50 μl, of the appropriate agonist radioligand, and finally 100 μL of membrane suspension. For the A1AR (22 μg of protein/tube) the radioligand used was [^3H]36 (final concentration of 3.5 nM). For the A2AAR (20 μg/tube) the radioligand used was [^3H]37 (10 nM). For the A3AR (21 μg/tube) the radioligand used was [^125I]38 (0.34 nM). Nonspecific binding was determined using a final concentration of 10 μM unlabeled 36 diluted with the buffer. The mixtures were incubated at 25° C. for 60 min in a shaking water bath. Binding reactions were terminated by filtration through Brandel GF/B filters under a reduced pressure using a M-24 cell harvester (Brandel, Gaithersburg, Md.). Filters were washed three times with 3 mL of 50 mM ice-cold Tris-HCl buffer (pH 7.5). Filters for A1 and A2AAR binding were placed in scintillation vials containing 5 mL of Hydrofluor scintillation buffer and counted using a Perkin Elmer Liquid Scintillation Analyzer (Tri-Carb 2810TR). Filters for A3AR binding were counted using a Packard Cobra II γ-counter. The Ki values were determined using GraphPad Prism for all assays.
(§4) [^3H](2-[p-(2-carboxyethyl)phenyl-ethylamino]-5′-N-ethylcarboxamido-adenosine) ([^3H]CGS21680, 40.5 Ci/mmol) and [^125I]N^6-(4-amino-3-iodobenzyl)adenosine-5′-N-methyluronamide ([^125I]I-AB-MECA, 2200 Ci/mmol) were purchased from PerkinElmer. Test compounds were prepared as 5-mM stock solutions in DMSO and stored frozen at −20° C.
(§5) Chinese hamster ovary (CHO) cells were generated by stably expressing the recombinant hA1 and hA3 and human embryonic kidney (HEK) 293 cells stably expressing the hA2AAR in DMEM and F12 (1:1) supplemented with 10% fetal bovine serum, 100 units/mL penicillin, 100 μg/mL streptomycin, and 2 μmol/mL glutamine. 800 μg/mL Geneticin were added to the A2A media and 500 μg/mL hygromycin to the A1 and A3 media. After harvesting the cells, they were homogenized with an electric homogenizer for 10 sec, pipetted them into 1-mL vials, and then stored them at −80° C. until the binding experiments were conducted. The protein concentration was measured with a BCA Protein Assay Kit from Pierce Biotechnology (Rockford, Ill.). […]

[2] = biological target: T2, hA2AAR (Homo sapiens, UniProt P29274); assay: Radioligand binding at human A2A AR ([3H]CGS21680, membranes of HEK-293 cells)
T2 construct: expressed in transfected cells
T2 sequence (P29274 whole entry): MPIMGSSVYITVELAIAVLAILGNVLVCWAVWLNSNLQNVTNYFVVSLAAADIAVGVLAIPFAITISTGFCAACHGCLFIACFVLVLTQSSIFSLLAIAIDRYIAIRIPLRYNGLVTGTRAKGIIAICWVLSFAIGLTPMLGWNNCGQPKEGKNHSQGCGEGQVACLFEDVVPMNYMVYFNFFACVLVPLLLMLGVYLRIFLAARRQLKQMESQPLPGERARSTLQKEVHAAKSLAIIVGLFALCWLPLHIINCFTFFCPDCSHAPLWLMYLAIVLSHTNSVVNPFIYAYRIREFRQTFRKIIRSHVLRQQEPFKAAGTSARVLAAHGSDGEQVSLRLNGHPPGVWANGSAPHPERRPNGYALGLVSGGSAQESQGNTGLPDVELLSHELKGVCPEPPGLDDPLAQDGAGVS
Experimental: as §1, §2, §3, §4, §5

[3] = biological target: T3, human A3AR (Homo sapiens, UniProt P0DMS8); assay: Radioligand binding at human A3 AR ([125I]I-AB-MECA, membranes of CHO cells); details: Example 7; agonist radioligand [125I]47; read-out: AR Affinity Ki, nM, A3
T3 construct: expressed in transfected cells
T3 sequence (P0DMS8 1-318): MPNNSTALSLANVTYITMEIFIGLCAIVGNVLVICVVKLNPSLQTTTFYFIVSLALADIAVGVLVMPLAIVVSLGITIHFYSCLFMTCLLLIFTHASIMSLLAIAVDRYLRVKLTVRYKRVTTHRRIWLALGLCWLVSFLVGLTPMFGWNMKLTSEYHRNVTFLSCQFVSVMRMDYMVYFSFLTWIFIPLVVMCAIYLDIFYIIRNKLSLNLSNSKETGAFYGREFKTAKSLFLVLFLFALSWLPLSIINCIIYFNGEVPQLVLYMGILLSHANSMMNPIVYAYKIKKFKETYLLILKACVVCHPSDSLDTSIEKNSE
Experimental: Test compounds were prepared as 5 mM stock solutions in DMSO and stored frozen at −20° C.
as §2
as §3, with “For the A1AR (22 μg of protein/tube) the radioligand used was [^3H]36 (final concentration of 3.5 nM).” left out, “For the A3AR (21 μg/tube) the radioligand used was [^125I]38 (0.34 nM).” left out, “Filters for A1 and A2AAR binding were placed in scintillation vials containing 5 mL of Hydrofluor scintillation buffer and counted using a Perkin Elmer Liquid Scintillation Analyzer (Tri-Carb 2810TR).” left out
Test compounds were prepared as 5-mM stock solutions in DMSO and stored frozen at −20° C.
Chinese hamster ovary (CHO) cells were generated by stably expressing the recombinant hA1 and hA3 and human embryonic kidney (HEK) 293 cells stably expressing the hA2AAR in DMEM and F12 (1:1) supplemented with 10% fetal bovine serum, 100 units/mL penicillin, 100 μg/mL streptomycin, and 2 μmol/mL glutamine. 800 μg/mL Geneticin were added to the A2A media and 500 μg/mL hygromycin to the A1 and A3 media. After harvesting the cells, they were homogenized with an electric homogenizer for 10 sec, pipetted them into 1-mL vials, and then stored them at −80° C. until the binding experiments were conducted. The protein concentration was measured with a BCA Protein Assay Kit from Pierce Biotechnology (Rockford, Ill.).
Each tube in the binding assay contained 50 μL of increasing concentrations of the test ligand in Tris-HCl buffer (50 mM, pH 7.5) containing 10 mM MgCl2, 50 μL of the appropriate agonist radioligand, and 100 μL membrane suspension, added sequentially. […] For the A2AAR (20 μg/tube), the radioligand [^3H]CGS21680 was used (−10 nM). […] The mixtures were incubated at 25° C. for 60 min in a shaking water bath. The binding reactions were terminated by filtration through Brandel GF/B filters under a reduced pressure with a M-24 cell harvester (Brandel, Gaithersburg, Md.). Filters were washed three times with 3 mL 50-mM ice-cold Tris-HCl buffer (pH 7.5). […] The filters were counted for A3AR binding with a Packard Cobra II γ-counter (PerkinElmer). The Ki values were determined with GraphPad Prism for all assays.

| SMILES | Ki [1] [nM] | inhibition at 10 µM [2] [%] | Ki [3] [nM] | inhibition at 10 µM [1] [%] |
| --- | --- | --- | --- | --- |
| CNC(=O)[C@@]12C[C@@H]1[C@@H](n1cnc3c(NCc4cccc(C#CCCCCc5cn(-c6ccc(F)c([N+](=O)[O-])c6)nn5)c4)nc(Cl)nc31)[C@H](O)[C@@H]2O [Compound 204, (1S,2R,3S,4R,5S)-4-(2-Chloro-6-(3-(6-(1-(4-fluoro-3-nitrophenyl)-1H-1,2,3-triazol-4-yl)hex-1-ynyl)benzylamino)-9H-purin-9-yl)-2,3-dihydroxybicyclo[3.1.0]hexane-1-carboxylic acid-N-methylamide] | 2420 ± 230 | 28.6 | 71.7 ± 54 |  |
| CNC(=O)[C@@]12C[C@@H]1[C@@H](n1cnc3c(NCc4cccc(C#CCCCCCc5cn(-c6ccc(F)c([N+](=O)[O-])c6)nn5)c4)nc(Cl)nc31)[C@H](O)[C@@H]2O [Compound 205, (1S,2R,3S,4R,5S)-4-(2-Chloro-6-(3-(7-(1-(4-fluoro-3-nitrophenyl)-1H-1,2,3-triazol-4-yl)hept-1-ynyl)benzylamino)-9H-purin-9-yl)-2,3-dihydroxybicyclo[3.1.0]hexane-1-carboxylic acid-N-methylamide] | 1290 ± 290 | 25.2 | 30.1 ± 13 |  |
| CNC(=O)[C@@]12C[C@@H]1[C@@H](n1cnc3c(NCc4cccc(C#CCCCCc5cn(C67CC8CC(CC(C8)C6)C7)nn5)c4)nc(Cl)nc31)[C@H](O)[C@@H]2O [Compound 206, (1S,2R,3S,4R,5S)-4-(2-Chloro-6-(3-(6-(1-(adamantyl)-1H-1,2,3-triazol-4-yl)hex-1-ynyl)benzylamino)-9H-purin-9-yl)-2,3-dihydroxybicyclo[3.1.0]hexane-1-carboxylic acid-N-methylamide] | 1720 ± 240 | 17 | 21.8 ± 5.3 |  |
| C#CCCCCC#Cc1cccc(CNc2nc(Cl)nc3c2ncn3[C@H]2[C@H](O)[C@H](O)[C@@H]3C[C@@H]32)c1 [Compound 212, (1R,2R,3S,4R,5S)-4-(2-Chloro-6-(3-(octa-1,7-diynyl)benzylamino)-9H-purin-9-yl) bicyclo[3.1.0]hexane-2,3-diol] |  | 44.1 | 2500 ± 640 | 48.5 |
| O=[N+]([O-])c1cc(-n2cc(CCCC#Cc3cccc(CNc4nc(Cl)nc5c4ncn5[C@H]4[C@H](O)[C@H](O)[C@@H]5C[C@@H]54)c3)nn2)ccc1F [Compound 214, (1R,2R,3S,4R,5S)-4-(2-Chloro-6-(3-(5-(1-(4-fluoro-3-nitrophenyl)-1H-1,2,3-triazol-4-yl)pent-1-ynyl)benzylamino)-9H-purin-9-yl)-bicyclo[3.1.0]hexane-2,3-diol] |  | 16.7 | 897 ± 20 | 11 |
| O=[N+]([O-])c1cc(-n2cc(CCCCC#Cc3cccc(CNc4nc(Cl)nc5c4ncn5[C@H]4[C@H](O)[C@H](O)[C@@H]5C[C@@H]54)c3)nn2)ccc1F [Compound 215, (1R,2R,3S,4R,5S)-4-(2-Chloro-6-(3-(6-(1-(4-fluoro-3-nitrophenyl)-1H-1,2,3-triazol-4-yl)hex-1-ynyl)benzylamino)-9H-purin-9-yl)-bicyclo[3.1.0]hexane-2,3-diol] |  | 8.2 | 933 ± 720 | 24.3 |
| O=[N+]([O-])c1cc(-n2cc(CCCCCC#Cc3cccc(CNc4nc(Cl)nc5c4ncn5[C@H]4[C@H](O)[C@H](O)[C@@H]5C[C@@H]54)c3)nn2)ccc1F [Compound 216, (1R,2R,3S,4R,5S)-4-(2-Chloro-6-(3-(7-(1-(4-fluoro-3-nitrophenyl)-1H-1,2,3-triazol-4-yl)hept-1-ynyl)benzylamino)-9H-purin-9-yl)bicyclo[3.1.0]hexane-2,3-diol] |  | 18 | 521 ± 250 | 29.5 |
| CNC(=O)[C@@]12C[C@@H]1[C@@H](n1cnc3c(NCc4cn(-c5ccc(F)c([N+](=O)[O-])c5)nn4)nc(Cl)nc31)[C@H](O)[C@@H]2O [Compound 219a, (1S,2R,3S,4R,5S)-4-(2-Chloro-6-((1-(4-fluoro-3-nitrophenyl)-1H-1,2,3-triazol-4-yl)methylamino)-9H-purin-9-yl)-2,3-dihydroxy-N-methylbicyclo[3.1.0]hexane-1-carboxamide] |  | 19.3 | 9.1 ± 1.9 | 38 |
